Results on eleven compounds are retold here after patent publication EP0009777A1, “Retinoic- and 7,8-dehydro-retinoic-acid-N-(carboxy)phenyl amides, process for their preparation and pharmaceutical compositions containing them” (BASF Aktiengesellschaft, priority 1978, dated 1980).

The first series has as its system Hamster-Tracheen-Gewebe. Kind of series: Reversal of keratinisation induced by vitamin A deficiency in hamster tracheal tissue (organ culture; methods of Clamon et al. 1974, Sporn et al. 1975). Type of series: cell-based. The note with it: Mesocricetus auratus, keratinisation induced by vitamin A hypovitaminosis, read-out: Konzentration, in der die Keratinisierung von Hamster-Tracheen-Gewebe rückgängig gemacht / geheilt wird (wirksam). An excerpt: (§1) Nachteilig an diesen bekannten Retinsäureamiden ist ihre geringe therapeutische Breite. Die Substanzen zeigen entweder eine vergleichsweise geringe Aktivität oder wie wirken schon in vergleichsweise geringen Dosen toxisch. So kann beispielsweise Retinsäure-N-etylamid schon in 2 x 10-^9 molaren Konzentrationen die durch Vitamin A-Hypovitaminose induzierte Keratinisierung von Hamster-Tracheen--Gewebe wieder rückgängig machen. Die Methodik hierzu kann G.H. Clamon et al Nature 250; 64-66 (1974) oder M.B. Sporn et al Nature 253, 47-50 (1975)) entnommen werden. Die Keratinisierung wird als praekanzerotischer Prozeß angesehen. Das Retinsäure-N-ethylamid wirkt bereits in einer Konzentration von 9 x 10-^7 molar toxisch auf Tracheenknorpelgewebe vom Hamster in Kultur, wie von M.B. Sporn et al in Nature 263, 110-113 (1976) beschrieben ist.
Bei der Prophylaxe von Praekanzerosen an keratinisiertem Hamster-Tracheen-Gewebe ist die freie Säure jedoch noch in 10^-10 molarer Konzentration wirksam und damit wesentlich aktiver als der Ethylester.
As to `CCOC(=O)c1ccc(NC(=O)/C=C(C)/C=C/C=C(C)/C=C/C2=C(C)CCCC2(C)C)cc1` [Retinsäure-N-(p-ethoxycarbonyl)-phenylamid, reference compound], the minimal effective concentration came to 0.01 µM.
On the same count and under the same terms, the value for `CCNC(=O)/C=C(C)/C=C/C=C(C)/C=C/C1=C(C)CCCC1(C)C` [Retinsäure-N-ethylamid, reference compound] was 0.002 µM.
Same read-out and setting: the value for `CC1=C(/C=C/C(C)=C/C=C/C(C)=C/C(=O)Nc2ccc(C(=O)O)cc2)C(C)(C)CCC1` [all-E-Retinsäure-N-(p-carboxy)-phenylamid] was 0.0001 µM.

Staying with this series, now noted: keratinisation induced by vitamin A hypovitaminosis.
Turning to `CC1=C(/C=C/C(C)=C/C=C/C(C)=C\C(=O)Nc2cccc(C(=O)O)c2)C(C)(C)CCC1` [13-Z-Retinsäure-N-(m-carboxy)-phenylamid], the “Konzentration, in der die Keratinisierung von Hamster-Tracheen-Gewebe rückgängig gemacht / geheilt wird (wirksam)” value is on record as “Entsprechende Resultate”.
In the case of `CC1=C(/C=C/C(C)=C/C=C/C(C)=C\C(=O)Nc2ccccc2C(=O)O)C(C)(C)CCC1` [13-Z-Retinsäure-N-(o-carboxy)-phenylamid], the “Konzentration, in der die Keratinisierung von Hamster-Tracheen-Gewebe rückgängig gemacht / geheilt wird (wirksam)” value is listed as “Entsprechende Resultate”.
The same measure, in the same setting: the value for `CC1=C(/C=C/C(C)=C/C=C/C(C)=C\C(=O)Nc2ccc(C(=O)O)cc2)C(C)(C)CCC1` [13-Z-Retinsäure-N-(p-carboxy)-phenylamid] was “Entsprechende Resultate”; that for `CC1=C(C#C/C(C)=C/C=C/C(C)=C/C(=O)Nc2cccc(C(=O)O)c2)C(C)(C)CCC1` [all-E-7,8-Dehydro-retinsäure-N-(m-carboxy)-phenylamid] was “Entsprechende Resultate”.
The same measure, in the same setting: the entry for `CC1=C(C#C/C(C)=C/C=C/C(C)=C/C(=O)Nc2ccccc2C(=O)O)C(C)(C)CCC1` [all-E-7,8-Dehydro-retinsäure-N-(o-carboxy)-phenylamid] is “Entsprechende Resultate”; for `CC1=C(C#C/C(C)=C/C=C/C(C)=C/C(=O)Nc2ccc(C(=O)O)cc2)C(C)(C)CCC1` [all-E-7,8-Dehydro-retinsäure-N-(p-carboxy)-phenylamid] it is “Entsprechende Resultate”; for `CC1=C(/C=C/C(C)=C/C=C/C(C)=C/C(=O)Nc2cccc(C(=O)O)c2)C(C)(C)CCC1` [all-E-Retinsäure-N-(m-carboxy)-phenylamid] it is “Entsprechende Resultate”.
Still for that read-out and setting: the entry for `CC1=C(/C=C/C(C)=C/C=C/C(C)=C/C(=O)Nc2ccccc2C(=O)O)C(C)(C)CCC1` [all-E-Retinsäure-N-(o-carboxy)-phenylamid] is “Entsprechende Resultate”.

In the next series the test system is Tracheenknorpelgewebe vom Hamster. Briefly: Toxicity on hamster tracheal cartilage tissue in culture (Sporn et al. 1976). Type of series: cell-based. The note with it: result in words; test not named, presumably the tracheal cartilage culture.
Description: as §1
In the case of `CCOC(=O)c1ccc(NC(=O)/C=C(C)/C=C/C=C(C)/C=C/C2=C(C)CCCC2(C)C)cc1` [Retinsäure-N-(p-ethoxycarbonyl)-phenylamid, reference compound], the “celluläre Toxizität” value is given as “geringe celluläre Toxizität”.
Same read-out and setting: the entry for `CC1=C(/C=C/C(C)=C/C=C/C(C)=C/C(=O)Nc2ccc(C(=O)O)cc2)C(C)(C)CCC1` [all-E-Retinsäure-N-(p-carboxy)-phenylamid] is “ebenso geringe Toxizität wie der entsprechende Ethylester”.
